Experimental findings from patent US5077204A, “Yeast endopeptidase for basic amino-acid site cleavage, preparation and use” (Chiron Corporation, priority 1988, dated 1991) are described below.

Holding throughout (type): biochemical, S. cerevisiae
The target in experiment [1] is T1, KEX2 endopeptidase (kex2[YEp24-pJ2B] membranes) (Saccharomyces cerevisiae, UniProt P13134).
T1 construct: not only includes the KEX2 gene, but also the necessary transcriptional and translational regulatory signals for expression in yeast; expressed in transfected cells; host or cells: S. cerevisiae XBH16-15A (MATalpha kex2-1) carrying YEp24-pJ2B
T1 sequence (P13134 114-814): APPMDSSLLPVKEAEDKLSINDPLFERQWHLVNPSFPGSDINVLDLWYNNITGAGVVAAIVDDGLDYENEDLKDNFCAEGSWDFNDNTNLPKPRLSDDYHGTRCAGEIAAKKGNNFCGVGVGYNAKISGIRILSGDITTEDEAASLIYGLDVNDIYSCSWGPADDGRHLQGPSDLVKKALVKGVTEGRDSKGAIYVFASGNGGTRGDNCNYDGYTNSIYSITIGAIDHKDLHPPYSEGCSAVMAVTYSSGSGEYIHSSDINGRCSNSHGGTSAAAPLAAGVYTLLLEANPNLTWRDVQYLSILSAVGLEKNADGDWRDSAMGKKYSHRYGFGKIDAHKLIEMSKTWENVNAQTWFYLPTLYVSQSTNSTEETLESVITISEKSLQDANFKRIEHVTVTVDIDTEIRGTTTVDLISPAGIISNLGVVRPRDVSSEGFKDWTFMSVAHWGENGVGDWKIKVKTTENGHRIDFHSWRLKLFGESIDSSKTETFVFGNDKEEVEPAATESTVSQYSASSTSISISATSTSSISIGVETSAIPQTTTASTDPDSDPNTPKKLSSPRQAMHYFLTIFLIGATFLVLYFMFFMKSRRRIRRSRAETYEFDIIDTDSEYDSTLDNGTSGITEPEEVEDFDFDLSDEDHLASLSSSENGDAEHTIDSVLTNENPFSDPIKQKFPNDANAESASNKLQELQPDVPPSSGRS
Description: Endopeptidase activity in membranes from kex2 cells carrying multicopy plasmid pJ2B (over-produced specific endopeptidase). The conditions noted are these: for Relative Ratio: kex2[YEp24-pJ2B] relative to kex2[YEp24] = [1.0]; for Rate of hydrolysis, membranes from kex2 cells carrying pJ2B versus membranes from kex2 cells carrying YEp24: membrane fractions, depending on the experiment. As to the method: (§1) Permeabilization of whole yeast cells with the non-ionic detergent Brij 58, preparation of crude membrane fractions, and measurement of protein concentration were conducted by the methods described previously (Julius et al., 1983, supra), incorporated herein by reference. To measure peptidase activity, samples of permeabilized cells or membrane material were added to a reaction mixture containing 0.1-0.5 mM fluorogenic peptide substrate (added from a 20 mM stock dissolved in DMSO) and 200 mM HEPES-Tris (pH 7.0), in a final volume of 0.4 ml. Following incubation for 30 min at 37° C., whole cells were removed by centrifugation in a microfuge (Eppendorf) and membrane material was removed by Ba(OH)2 -ZnSO4 precipitation. The amount of fluorescence formed in the supernatant solution was determined in a fluorescence spectrophotometer (Perkin-Elmer, Model MPF-44B), set either at an excitation wavelength of 335 nm and an emission wavelength of 410 nm (for measurement of β-naphthylamine) or at an excitation wavelength of 380 nm and an emission wavelength of 460 nm (for measurement of 7-amino-4-methyl-coumarin, AMC). To determine the number of moles of substrate hydrolyzed, the fluorescence yield of samples was compared to a standard curve prepared with known concentrations of authentic AMC dissolved in the same buffer.
(§2) Cells of strain XBH1615A that had been transformed with the plasmids
(§3) indicated, or that contained pJ2B in integrated form, were grown in SCUra
(§4) and membranes were prepared as described in the Experimental.
(§5) Endopeptidase activity was assayed as described in the Experimental. All
(§6) substrates tested were present at 0.1 mM.
(§7) Endopeptidase activity was assayed using Boc--GlnArgArg--MCA as the
(§8) substrate, as outlined in the Experimental. All inhibitors were added fro
a 0.1 M stock dissolved in dimethyl sulfoxide.

The test system of experiment [2] is background activity in membranes of kex2[YEp24] cells. Description: Endopeptidase activity in membranes from kex2 cells transformed with the vector YEp24 alone (background activity). As to the method:
as §1, §2, §3, §4, §5, §6, §7, §8
(§9) a 0.1 M stock dissolved in dimethyl sulfoxide. All values given were
(§10) corrected for the slight effects of addition of this solvent alone.

In experiment [3] the target is T2, KEX2 endopeptidase (kex2::pJ2B membranes) (Saccharomyces cerevisiae, UniProt P13134).
T2 construct: not only includes the KEX2 gene, but also the necessary transcriptional and translational regulatory signals for expression in yeast; expressed in transfected cells; host or cells: S. cerevisiae XBH16-15A (MATalpha kex2-1) containing pJ2B in integrated form; crude membranes
Description: Endopeptidase activity in membranes from kex2 cells containing pJ2B in integrated form. Particulars: for Relative Ratio: kex2::pJ2B relative to kex2[YEp24] = [1.0]. As to the method: as §1, §2, §3, §4, §5, §6, §7, §8, §9, §10

Experiment [4] concerns the target T3, KEX2 endopeptidase (lysate of XBH16-15A carrying YEp24-pJ2B) (Saccharomyces cerevisiae, UniProt P13134).
T3 construct: not only includes the KEX2 gene, but also the necessary transcriptional and translational regulatory signals for expression in yeast; expressed in transfected cells; host or cells: S. cerevisiae XBH16-15A (MATalpha kex2-1) carrying YEp24-pJ2B
Description: Release of endopeptidase activity from membranes by detergent treatment. The protocol:
as §1
Strain XBH1615A carrying the KEX2 gene on a multicopy plasmid (YEp24pJ2B)
was grown to midexponential phase in SCUra. The cells were collected by
centrifugation and a lysate was prepared as described in the Experimental
The lysate was divided into two equal portions, one of which was treated
with the nonionic detergent Triton X100 at a final concentration of 1%.
Samples of both the original lysate and the detergenttreated lysate were
saved and the remainder of each was separated into a crude membrane
fraction (P100) and a soluble fraction (S100) by centrifugation at 100,00
× g for 1 hr for endopeptidase activity using
Boc--GlnArgArg--MCA as the substrate, as given in the Experimental.

The target of experiment [5] is T4, KEX2 endopeptidase (Brij 58-permeabilized kex2 cells carrying pJ2B) (Saccharomyces cerevisiae, UniProt P13134).
T4 construct: not only includes the KEX2 gene, but also the necessary transcriptional and translational regulatory signals for expression in yeast; expressed in transfected cells; host or cells: S. cerevisiae XBH16-15A (MATalpha kex2-1) carrying YEp24-pJ2B
Description: Peptidase activity in detergent-permeabilized kex2 cells carrying pJ2B. Particulars: for Rate of hydrolysis, kex2 cells carrying pJ2B versus kex2 cells harboring the vector alone: detergent-permeabilized cells; for Rate of hydrolysis relative to the lysine-containing substrate (Boc-GluLysLys-MCA), times faster: detergent-permeabilized kex2 cells carrying pJ2B. As to the method:
as §1

Where [6] appears, read: kex2[YEp24-pJ2B], Triton X-100 1% + 5 mM TPCK, substrate Boc-GlnArgArg-MCA.
Setting [7] is: kex2[YEp24-pJ2B], Triton X-100 1%, substrate Boc-GlnArgArg-MCA.
Where [8] appears, read: kex2[YEp24], Triton X-100 1% + 5 mM TPCK, substrate Boc-GlnArgArg-MCA.
[9] abbreviates: kex2[YEp24], Triton X-100 1%, substrate Boc-GlnArgArg-MCA.
[10] abbreviates: kex2::pJ2B, Triton X-100 1% + 5 mM TPCK, substrate Boc-GlnArgArg-MCA.
Setting [11] is: kex2::pJ2B, Triton X-100 1%, substrate Boc-GlnArgArg-MCA.
Setting [12] is: +1% Triton X-100, P100 crude membrane fraction.
The mark [13] stands for this setting: +1% Triton X-100, S100 soluble fraction.
[14] abbreviates: strain kex2[YEp24-pJ2B], substrate 0.1 mM, membranes.
Setting [15] is: strain kex2[YEp24], substrate 0.1 mM, membranes.
The mark [16] stands for this setting: strain kex2::pJ2B, substrate 0.1 mM, membranes.

Peptide text beside a SMILES is read from it. * marks the point of attachment. AMC = Cc1cc(=O)oc2cc(N*)ccc12; βNA = c1ccc2cc(N*)ccc2c1; Cbz = O=C(OCc1ccccc1)*; Boc = CC(C)(C)OC(=O)*

For the compound Triton X-100, the “Relative Ratio” value in experiment [1] (Triton X-100 1% + 5 mM TPCK) is 127.4; in experiment [3] (Triton X-100 1% + 5 mM TPCK), 9.4. The Inhibition (as a rule, the drop in the measured response relative to a control, in per cent) in experiment [1] (setting [6]) was 0%; in experiment [1] (setting [7]), 0%; in experiment [2] (setting [8]) it was 76%; in experiment [2] (setting [9]), 71%; in experiment [3] (setting [10]), 34%; in experiment [3] (setting [11]), 26%. Further, the “Specific Activity” value in experiment [1] (setting [6]) is 152.9 pmoles/μg/10 min; in experiment [1] (setting [7]), 155.0 pmoles/μg/10 min; in experiment [2] (setting [8]), 1.2 pmoles/μg/10 min; in experiment [2] (setting [9]), 1.5 pmoles/μg/10 min; in experiment [3] (setting [10]), 11.4 pmoles/μg/10 min; in experiment [3] (setting [11]), 12.9 pmoles/μg/10 min. Also, the “Specific Activity” value came to 50.0 pmoles/μg/10 min in experiment [4] (setting [12]); 200.0 pmoles/μg/10 min in experiment [4] (setting [13]); 265.0 pmoles/μg/10 min in experiment [4] (+1% Triton X-100, whole lysate, substrate Boc-GlnArgArg-MCA). Further, in experiment [1] (kex2 cells transformed with plasmid pJ2B, comparisons are to the background activity), the “Susceptibility of the specific KEX2 endopeptidase to inhibition or inactivation” value was “slightly activated”. For the same compound, in experiment [2] (kex2 cells transformed with YEp24 alone), the “Susceptibility of the background activity to inhibition” value is recorded as “greatly reduced”. Further, the “% of Recovery” value in experiment [4] (+1% Triton X-100, P100 + S100) was 94%. In addition, the “% of Total” value in experiment [4] (setting [12]) stood at 19%; in experiment [4] (setting [13]), 75%. Moreover, in experiment [4] (Triton X-100 at final concentration of 1%), the “Solubilization of the specific KEX2 endopeptidase from membranes” value is listed as “readily solubilized from membranes”.

As to `Cc1cc(=O)oc2cc(NC(=O)[C@H](CCCNC(=N)N)NC(=O)[C@H](CCCNC(=N)N)NC(=O)[C@H](CCC(N)=O)NC(=O)OC(C)(C)C)ccc12` [Boc--GlnArgArg--MCA, Boc-GlnArgArg-7-amino-4-methyl-coumarin] (Boc-Gln-Arg-Arg-{AMC}), the “Relative Ratio” value in experiment [1] (substrate 0.1 mM) came to 20.2; in experiment [3] (substrate 0.1 mM), 3.3. The “Rate of hydrolysis, membranes from kex2 cells carrying pJ2B versus membranes from kex2 cells carrying YEp24” value in experiment [1] was 20- to 35 fold. Also, the “Specific Activity” value in experiment [1] (setting [14]) is 100.8 pmoles AMC formed/μg protein 10; in experiment [2] (setting [15]), 5.0 pmoles AMC formed/μg protein 10; in experiment [3] (setting [16]), 16.7 pmoles AMC formed/μg protein 10. Moreover, the “Rate of hydrolysis, kex2 cells carrying pJ2B versus kex2 cells harboring the vector alone” value in experiment [5] was “six- to ninefold greater”. The “Rate of hydrolysis relative to the lysine-containing substrate (Boc-GluLysLys-MCA), times faster” value in experiment [5] is approximately 30 times.

Consider `C[C@H](NC(=O)OCc1ccccc1)C(=O)N[C@@H](CCCNC(=N)N)C(=O)N[C@@H](CCCNC(=N)N)C(=O)Nc1ccc2ccccc2c1` [CBZ-AlaArgArg-β-naphthylamide] (Cbz-Ala-Arg-Arg-βNA), for which, in experiment [5], the “Rate of hydrolysis, kex2 cells carrying pJ2B versus kex2 cells harboring the vector alone” value is “six- to ninefold greater” and the “Rate of hydrolysis relative to the lysine-containing substrate (Boc-GluLysLys-MCA), times faster” value is listed as approximately 30 times.

For the compound `Cc1cc(=O)oc2cc(NC(=O)[C@H](CCCCN)NC(=O)[C@H](CCCCN)NC(=O)[C@H](CCC(=O)O)NC(=O)OC(C)(C)C)ccc12` [Boc--GluLysLys--MCA, Boc-GluLysLys-MCA] (Boc-Glu-Lys-Lys-{AMC}), the figures for the “Relative Ratio” value in experiment [1] (substrate 0.1 mM) and in experiment [3] (substrate 0.1 mM) were 6.3 and 1.7, respectively. The “Rate of hydrolysis relative to Boc-GlnArgArg-MCA, times more slowly” value in experiment [1] (membrane fractions of kex2 cells carrying pJ2B) is listed as “about 50 times”. In addition, in experiment [1], the “Rate of hydrolysis, membranes from kex2 cells carrying pJ2B versus membranes from kex2 cells carrying YEp24” value is “about six-fold”. In addition, the “Specific Activity” value is reported as 1.9 pmoles AMC formed/μg protein 10 in experiment [1] (setting [14]), 0.3 pmoles AMC formed/μg protein 10 in experiment [2] (setting [15]) and 0.5 pmoles AMC formed/μg protein 10 in experiment [3] (setting [16]). Also, the “Rate of hydrolysis, kex2 cells carrying pJ2B versus kex2 cells harboring the vector alone” value in experiment [5] is reported as “six- to ninefold greater”.
